From patent publication US20080153792A1, “Drug Identification and Treatment Method” (priority 2006, published 2008)

Tested on: human peripheral blood mononuclear cells (PBMC)
Assay: human mixed lymphocyte reaction (MLR)
Type: cell-based
Details: either 300 nM or 30 nM; 6 days; p>0.05
Method: Human mixed lymphocyte reaction (MLR). The capacity of 3β,16α-dihydroxy-17-oxoandrostane, 3β,17β-dihydroxy-16-oxoandrostane, 17α-ethynylandrost-5-ene-3β,7β,17β-triol, and 17β-aminoandrost-5-ene-3β-ol to affect antigen specific stimulation in which human T lymphocytes respond to a specific foreign antigen (major histocompatibility complex).
Blood samples were obtained from 3 (2 males, […]) fasting, healthy human volunteers of 23-31 years old. […] The subjects were bled between […] to limit possible fluctuations in the circulating levels of hormones or cytokines that could have influenced the in vitro responses of their lymphocytes. Peripheral blood mononuclear cells (PBMC) were isolated by centrifugation on Ficoll-Hypaque (density 1.077, Biochrom AG, Berlin, Germany) gradients and resuspended in culture medium (RPMI 1640 supplemented with 2 mM L-glutamine, penicillin (100 U/mL) and streptomycin ([…]) (Invitrogen s.rl., Milan, Italy). Autologous (responder) inactivated plasma was used at 10%. Five hundred thousand responder PBMC (PBMCr) and 500,000 allogeneic irradiated (30 Gy) stimulator PBMC (PBMCs) were mixed at a ratio of 1:1 in 200 μL medium and cultured for 6 days in flat bottom 96 well plates (Nunc, Roskilde, Denmark) at a concentration of 300 nM or 30 nM for each of the 4 compounds. The compounds were dissolved in ethanol and then diluted to the desired concentration with culture medium leading to a final solution containing 0.01% of ethanol. This vehicle was used as control. Controls also included PBMCr and PBMCs cultured separately. During the last 8 hours of the culture period the PBMC were pulsed with 1 μCi/well [^3H] thymidine (Amersham, Milan, Italy). The cells were then harvested and radioactivity incorporation measured with a beta cell counter. The mean cpm of quadruplicate wells was calculated. Proliferation of T cells was expressed as a stimulation index: SI=cpm (PMBCs xPBMCr)/cpm (PBMCr)+cpm (PBMCs). Statistical analysis was performed using the Student's t test. The cpm obtained from quadruplicate of each test compound were compared to proliferative responses obtained in control PBMCr and PBMCs cultured in the presence of the vehicle. Differences were considered significant at p<0.05.

## C#C[C@]1(O)CC[C@H]2[C@@H]3[C@@H](O)C=C4C[C@@H](O)CC[C@]4(C)[C@H]3CC[C@@]21C [17α-ethynylandrost-5-ene-3β,7β,17β-triol]
  immune suppression in the MLR: not appreciably immune suppressive
